# Assay results reported in patent US11679100B2, “Methods of enhancing immunity” (The Regents of the University of California, priority 2018, dated 2023).
# Experiments:
# Stat3 = target: T1, Stat3 (Mus musculus, UniProt P42227); assay: mRNA expression in macrophages incubated with Stat3 inhibitor; assay type: cell-based, murine
# T1 construct: endogenous in cells; host or cells: murine bone marrow derived macrophages (WT and Itgam-/-)
# Method: Macrophage Polarization—Bone marrow derived macrophages were polarized with either IFNγ (20 ng/ml, Peprotech) plus LPS (100 ng/ml, Sigma) or LPS alone for 24 h or IL-4 (20 ng/ml, Peprotech) for 24-48 h. In some cases, macrophages were incubated with inhibitors of Stat3 ([…]) or cMyc (10058-F4, Selleck). In other experiments, BMM were treated with LLC tumor conditioned media (TCM) or 100 ng/ml TGF-β (PeproTech) for 6 h to analyze changes in protein and gene expression levels. TCM was obtained by culturing LLC in serum free media for 18 h followed by collecting the supernatant and sterile filtering prior to use. In some experiments TGF-β signaling was inhibited using SB5253324 added 30 min prior and during the 6 h stimulation. Total RNA was harvested from macrophages using the RNeasy Mini Kit (Qiagen) according to the manufacturer's instructions. Secreted protein was measured in culture supernatants by ELISA assays.
# Analysis of Gene Expression—Total RNA was isolated from cells using RNeasy Mini Kit (Qiagen). cDNA was prepared using 1 μg RNA with the qScript cDNA Synthesis Kit (Quanta Biosciences) or the SuperScript III First-Strand Synthesis Kit (Invitrogen). […]
# LLC tumors [1] = assay: Imatinib treatment of WT and Itgam-/- mice bearing LLC tumors; assay type: in vivo
# LLC tumors [2] = assay: Gemcitabine treatment of WT and Itgam-/- mice with LLC tumors; assay type: in vivo
# Method: Tumor Studies—Subcutaneous tumor studies: 5×10^5 LLC or B16 cells were injected subcutaneously into syngeneic (C57BL/6) 6- to 8-week old WT or Itgam^−/− mice (n=18). Tumors were excised at 7, 14 or 21 days, cryopreserved in OCT, lysed for RNA purification or collagenase-digested for flow cytometric analysis of CD11b+, F4/80+ and Gr1+ expression. Tumor volumes were calculated using the equation (l^2×w)/2. CL66-luc cells (0.5×10^6 cells) were suspended in 50 μL of basement membrane extract Matrigel (BD Pharmingen) in PBS (1:1) and inoculated orthotopically in the fourth mammary fat pad of female Balb/cJ mice. Tumor dimensions were measured every 2 days, and tumor volume was calculated using the equation: V (mm^3)=[…], where length is the longest diameter of the tumor and width is the shorter diameter.
# T1 sequence (P42227 whole entry): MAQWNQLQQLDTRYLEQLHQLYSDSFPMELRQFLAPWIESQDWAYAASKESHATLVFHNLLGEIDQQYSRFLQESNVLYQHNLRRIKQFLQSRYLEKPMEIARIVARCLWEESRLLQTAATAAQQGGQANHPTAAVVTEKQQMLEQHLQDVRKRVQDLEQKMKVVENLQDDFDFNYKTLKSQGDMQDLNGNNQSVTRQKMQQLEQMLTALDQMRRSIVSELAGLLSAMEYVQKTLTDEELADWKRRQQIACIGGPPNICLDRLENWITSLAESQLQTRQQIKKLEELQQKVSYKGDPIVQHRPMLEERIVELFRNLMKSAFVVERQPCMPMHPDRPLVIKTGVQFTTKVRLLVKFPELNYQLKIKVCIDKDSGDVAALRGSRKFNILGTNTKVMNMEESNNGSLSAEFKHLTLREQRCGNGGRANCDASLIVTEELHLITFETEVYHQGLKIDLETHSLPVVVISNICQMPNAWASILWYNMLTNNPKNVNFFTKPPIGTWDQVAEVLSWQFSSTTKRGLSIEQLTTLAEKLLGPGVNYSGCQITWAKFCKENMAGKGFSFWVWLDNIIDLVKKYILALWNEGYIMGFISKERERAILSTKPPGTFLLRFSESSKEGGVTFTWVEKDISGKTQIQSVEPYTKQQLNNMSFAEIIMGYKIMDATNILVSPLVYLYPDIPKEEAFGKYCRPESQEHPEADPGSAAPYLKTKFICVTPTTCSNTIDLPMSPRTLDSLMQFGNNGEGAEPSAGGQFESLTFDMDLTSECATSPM
smiles,measurement,setting,value
"C1=Cc2nc1cc1ccc([nH]1)c(-c1ccccc1)c1nc(cc3ccc([nH]3)c2-c2ccccc2)C=C1 [5,15-DPP]",Il6 expression in Itgam-/- macrophages,Stat3,did not affect the high levels of Il6 expression
same,immune suppressive factor expression in Itgam-/- macrophages,Stat3,reduced to WT macrophage levels
"Cc1ccc(NC(=O)c2ccc(CN3CCN(C)CC3)cc2)cc1Nc1nccc(-c2cccnc2)n1 [Imatinib, imatinib]",tumor growth and vascular normalization in Itgam-/- mice,LLC tumors [1],suppressed the enhanced tumor growth and increased vascular normalization observed in Itgam−/− mice
Nc1ccn([C@@H]2O[C@H](CO)[C@@H](O)C2(F)F)c(=O)n1 [gemcitabine],tumor growth in Itgam-/- mice versus WT mice,LLC tumors [2],suppressed tumor growth more profoundly than gemcitabine treatment of WT mice
